Results reported in PubChem BioAssay (NCI).
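Cultured in 96-well plates, cells were exposed to test compound for 48 hours across five concentrations. The concentration for 50% growth inhibition is given as GI50. At the TGI there is no net growth.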

Experiments:
Test in all cases: growth of human tumour cells (NCI), 48 h
SF-268 CNS = tested on: SF-268 CNS
SF-539 CNS = tested on: SF-539 CNS
MCF7 breast = tested on: MCF7 breast
TK-10 renal = tested on: TK-10 renal
U251 CNS = tested on: U251 CNS
RPMI-8226 leukemia = tested on: RPMI-8226 leukemia
UACC-257 melanoma = tested on: UACC-257 melanoma
BT-549 breast = tested on: BT-549 breast
SK-MEL-28 melanoma = tested on: SK-MEL-28 melanoma
HOP-92 NSCLC = tested on: HOP-92 NSCLC

Compound	TGI (SF-268 CNS) [µM]	GI50 (SF-539 CNS) [µM]	TGI (SF-539 CNS) [µM]	GI50 (MCF7 breast) [µM]	TGI (MCF7 breast) [µM]	GI50 (TK-10 renal) [µM]	TGI (TK-10 renal) [µM]	GI50 (U251 CNS) [µM]	TGI (U251 CNS) [µM]	GI50 (RPMI-8226 leukemia) [µM]	TGI (RPMI-8226 leukemia) [µM]	GI50 (UACC-257 melanoma) [µM]	TGI (UACC-257 melanoma) [µM]	GI50 (BT-549 breast) [µM]	TGI (BT-549 breast) [µM]	GI50 (SK-MEL-28 melanoma) [µM]	TGI (SK-MEL-28 melanoma) [µM]	TGI (HOP-92 NSCLC) [µM]	GI50 (SF-268 CNS) [µM]	GI50 (HOP-92 NSCLC) [µM]
[N-]=[N+]=NCCCn1c2c(c3ccc([N+](=O)[O-])cc3c1=O)C(=O)c1cc(F)ccc1-2	4.32	2.38	> 100	0.311	> 55.1	16.7	> 100	0.539	8.89	0.237	1.28	10.3	> 100	5.37	> 100	11.9	> 100	–	–	–
Nc1n[n+](-c2ccccc2)no1	> 100	–	> 100	–	–	–	> 100	–	> 100	–	> 100	–	> 100	–	–	–	–	92.9	–	–
COc1cc(-c2csc(NC(=O)Nc3ccc(C(F)(F)F)cc3)n2)cc(OC)c1OC	13.7	2.28	6.68	2.21	7.66	–	–	1.97	4.32	2.26	8.69	2.47	5.91	2.22	6.94	2.22	5.79	4.73	2.92	1.61
Cc1cccc2c1CCC21OC(=O)c2c1ccc1ccccc21 (configuration not stated)	> 100	–	–	–	–	–	> 100	–	> 100	–	–	–	85.5	–	–	–	> 100	–	–	–
O=C1/C(=C/c2ccc(Cl)cc2)CCC/C1=C\c1ccc(Cl)cc1	12.7	7.85	> 100	2.93	> 100	6.81	> 100	2.66	7.88	2.1	6.32	4.17	> 100	–	–	5.8	> 100	> 100	3.24	> 100
CCOC(=O)C#Cc1c(C(=O)OCC)nnn1Cc1ccc([N+](=O)[O-])cc1	21.5	–	–	2.3	7.22	1.87	3.33	8.89	20.9	2.8	7.37	2.71	7.08	5.07	17	3.03	10.2	5.35	7.49	2.22
NS(=O)(=O)NCCNc1nonc1C(=Nc1ccc(F)c(Br)c1)NO	> 100	37.5	> 100	32.9	> 100	29.8	> 100	53.1	> 100	37.9	> 100	–	–	40.9	> 100	48.3	> 100	86.2	38.8	23.6
CCOC(=O)c1cnc2c(ccc3ncccc32)c1NCCCN(CC)CC	> 100	–	–	–	–	–	> 100	–	> 100	–	> 100	–	> 100	–	–	–	> 100	> 100	–	–
NC1=NN(c2ccccc2)C(=O)C1C(=O)C(=O)Nc1nccs1 (configuration not stated)	> 100	–	> 100	–	–	–	> 100	–	> 100	–	> 100	–	> 100	–	–	–	> 100	> 100	–	–
C/C=C(\CCOS(=O)(=O)c1ccc(C)cc1)[Si](C)(C)C	> 100	–	> 100	–	–	–	> 100	–	> 100	–	> 100	–	> 100	–	–	–	> 100	> 100	–	–
CC1=C(O)/C(=C/C(C)CCC/C(C)=C/C=C/C(C)CCCc2ccoc2)OC1=O (configuration not stated)	97.9	–	> 100	–	–	–	78.6	–	> 100	–	–	–	66.3	–	–	–	> 100	–	–	–
Cc1ccc(NC(=O)CSc2nnc3n(Cc4ccccc4)c(=O)c4c(C)c(C(N)=O)sc4n23)cc1	86.8	21.7	> 100	> 100	> 100	13.7	34	5.17	52.9	> 100	> 100	> 100	> 100	12.7	72	–	–	12.2	14.4	2.57
N#CC1(C#N)C2C=CC(c3coc4cccc2c34)C1(C#N)C#N (configuration not stated)	20.3	–	35.2	–	–	–	18.6	–	33.9	–	19.9	–	23.1	–	–	–	10.8	35	–	–
O=C(N/N=C1\C(=O)N(c2nccs2)C(=O)C(=O)C1c1nc2ccccc2s1)c1ccccc1O (configuration not stated)	> 100	–	> 100	–	–	–	> 100	–	> 100	–	> 100	–	> 100	–	–	–	> 100	> 100	–	–
CCOC(=O)C(CC/C=C\c1ccccc1)N1CCC[C@H]1C(=O)OC (some centres not stated)	> 100	–	> 100	–	–	–	> 100	–	> 100	–	> 100	–	> 100	–	–	–	> 100	> 100	–	–
O=NNc1ccc(Sc2ccc(NN=O)cn2)nc1	> 100	–	> 100	–	> 100	–	> 100	–	> 100	–	–	–	> 100	–	> 100	–	> 100	–	–	–
CO/N=C(\COc1ccc2oc(-c3ccccc3)cc(=O)c2c1)c1ccc(OC)cc1	–	24.4	64.7	–	–	41.4	> 100	22.3	53.6	27.9	81.9	23.4	63.3	41.2	> 100	30.7	> 100	–	–	–
CCOC(=O)c1cnc2sc3ccc4ccccc4c3n2c1=O	> 100	–	> 100	–	–	–	> 100	–	> 100	–	> 100	–	> 100	–	–	–	> 100	> 100	–	–
